Assays:
Assay in all cases: relative viability (nuclei count vs DMSO), 5 days (fraction); higher = more cells survive
Bleomycin + Pemetrexed = compound: CC1=C(N=C(N=C1N)[C@H](CC(=O)N)NC[C@@H](C(=O)N)N)C(=O)N[C@@H]([C@H](C2=CN=CN2)OC3C(C(C(C(O3)CO)O)O)OC4C(C(C(C(O4)CO)O)OC(=O)N)O)C(=O)N[C@H](C)[C@H]([C@H](C)C(=O)N[C@@H]([C@@H](C)O)C(=O)NCCC5=NC(=CS5)C6=NC(=CS6)C(=O)NCCC[S+](C)C)O [Bleomycin] + Nc1nc2[nH]cc(CCc3ccc(C(=O)N[C@@H](CCC(=O)O)C(=O)O)cc3)c2c(=O)[nH]1 [Pemetrexed] (partner 0.2 µM); conditions: main component drawn
In short: (§1)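 Dosing by pin tool came one day after lung cancer cell lines were seeded in 1536-well plates, using either one drug or a fixed anchor-drug dose plus five library-drug doses (not always all listed) in √10 steps. After 5 days, nuclei were counted on 4× images. Relative viability is treated-well nuclei count divided by vehicle-well nuclei count, and values are medians of duplicate plates.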

Bleomycin + Luminespib = compound: CC1=C(N=C(N=C1N)[C@H](CC(=O)N)NC[C@@H](C(=O)N)N)C(=O)N[C@@H]([C@H](C2=CN=CN2)OC3C(C(C(C(O3)CO)O)O)OC4C(C(C(C(O4)CO)O)OC(=O)N)O)C(=O)N[C@H](C)[C@H]([C@H](C)C(=O)N[C@@H]([C@@H](C)O)C(=O)NCCC5=NC(=CS5)C6=NC(=CS6)C(=O)NCCC[S+](C)C)O [Bleomycin] + CCNC(=O)c1noc(-c2cc(C(C)C)c(O)cc2O)c1-c1ccc(CN2CCOCC2)cc1 [Luminespib] (partner 0.01 µM); conditions: main component drawn
In short: as §1

Etoposide + OSI-027 = compound: COc1cc([C@@H]2c3cc4c(cc3[C@@H](O[C@@H]3O[C@@H]5CO[C@@H](C)O[C@H]5[C@H](O)[C@H]3O)[C@H]3COC(=O)[C@H]23)OCO4)cc(OC)c1O [Etoposide] + COc1cccc2cc(-c3nc([C@H]4CC[C@H](C(=O)O)CC4)n4ncnc(N)c34)[nH]c12 [OSI-027] (partner 0.5 µM)
In short: as §1

Bleomycin + Crizotinib = compound: CC1=C(N=C(N=C1N)[C@H](CC(=O)N)NC[C@@H](C(=O)N)N)C(=O)N[C@@H]([C@H](C2=CN=CN2)OC3C(C(C(C(O3)CO)O)O)OC4C(C(C(C(O4)CO)O)OC(=O)N)O)C(=O)N[C@H](C)[C@H]([C@H](C)C(=O)N[C@@H]([C@@H](C)O)C(=O)NCCC5=NC(=CS5)C6=NC(=CS6)C(=O)NCCC[S+](C)C)O [Bleomycin] + C[C@@H](Oc1cc(-c2cnn(C3CCNCC3)c2)cnc1N)c1c(Cl)ccc(F)c1Cl [Crizotinib] (partner 1 µM); conditions: main component drawn
In short: as §1

Cell Line	relative viability (Bleomycin + Pemetrexed; first compound 0.01 µM)	relative viability (Bleomycin + Pemetrexed; first compound 0.03162 µM)	relative viability (Bleomycin + Pemetrexed; first compound 0.1 µM)	relative viability (Bleomycin + Pemetrexed; first compound 0.3162 µM)	relative viability (Bleomycin + Pemetrexed; first compound 1 µM)	relative viability (Bleomycin + Luminespib; first compound 0.01 µM)	relative viability (Bleomycin + Luminespib; first compound 0.03162 µM)	relative viability (Bleomycin + Luminespib; first compound 0.1 µM)	relative viability (Bleomycin + Luminespib; first compound 0.3162 µM)	relative viability (Bleomycin + Luminespib; first compound 1 µM)	relative viability (Etoposide + OSI-027; first compound 0.01 µM)	relative viability (Etoposide + OSI-027; first compound 0.03162 µM)	relative viability (Etoposide + OSI-027; first compound 0.1 µM)	relative viability (Etoposide + OSI-027; first compound 0.3162 µM)	relative viability (Etoposide + OSI-027; first compound 1 µM)	relative viability (Bleomycin + Crizotinib; first compound 0.01 µM)	relative viability (Bleomycin + Crizotinib; first compound 0.03162 µM)	relative viability (Bleomycin + Crizotinib; first compound 0.1 µM)	relative viability (Bleomycin + Crizotinib; first compound 0.3162 µM)	relative viability (Bleomycin + Crizotinib; first compound 1 µM)
NCI-H1792	0.71	0.756	0.87	0.426	0.312	0.393	0.424	0.553	0.239	0.251	0.509	0.699	0.51	0.696	0.537	0.886	0.971	0.675	0.312	0.258
SK-MES-1	0.767	0.899	0.807	0.379	0.213	0.701	0.641	0.641	0.244	0.202	0.523	0.616	0.544	0.437	0.189	0.83	0.86	0.753	0.309	0.213
NCI-H1650	0.358	0.214	0.189	0.15	0.128	0.172	0.213	0.213	0.18	0.188	0.711	0.556	0.41	0.32	0.163	0.397	0.311	0.258	0.16	0.172
NCI-H2126	0.728	0.774	0.629	0.567	0.611	0.954	0.934	0.872	0.566	0.551	0.742	0.662	–	0.706	0.506	0.932	1.1	0.982	0.948	0.801
NCI-H838	0.247	0.227	0.232	0.19	0.19	0.269	0.176	0.142	0.119	0.162	0.37	0.43	0.307	0.403	0.325	0.437	0.32	0.184	0.176	0.172
LU99A	0.158	0.157	0.159	0.165	0.133	0.297	0.283	0.256	0.172	0.162	0.307	0.343	0.242	0.308	0.228	0.344	0.358	0.284	0.12	0.16
NCI-H650	0.708	0.951	0.78	0.479	0.34	0.541	0.729	0.694	0.2	0.15	0.571	0.506	0.44	0.443	0.249	0.502	0.718	0.629	0.237	0.303
NCI-H1755	0.529	0.442	0.426	0.381	0.415	0.582	0.695	0.22	0.33	0.244	0.69	0.659	0.609	0.641	0.585	0.771	0.841	0.827	0.593	0.567
NCI-H322M	0.635	0.606	0.723	0.573	0.575	0.781	0.783	0.709	0.442	0.42	0.565	0.607	0.509	0.468	0.389	0.701	0.852	0.908	0.958	0.527
PC-3 [JPC-3]	1.03	1.18	0.948	0.647	0.526	0.685	0.665	0.621	0.55	0.418	0.657	0.731	0.636	0.736	0.689	0.811	1	0.872	0.689	0.485
NCI-H2405	0.955	0.974	0.919	0.595	0.408	0.651	0.697	0.589	0.347	0.358	0.637	0.671	0.49	0.612	0.462	0.695	0.8	0.713	0.45	0.372
NCI-H23	0.419	0.342	0.285	0.187	0.171	0.228	0.2	0.211	0.176	0.216	0.754	0.609	0.406	0.542	0.207	0.249	0.231	0.251	0.162	0.153
NCI-H1563	0.618	0.915	0.691	0.54	0.575	0.512	0.535	0.479	0.487	0.465	0.738	0.781	0.756	0.61	0.466	0.714	0.694	0.723	0.594	0.518
EKVX	0.36	0.317	0.315	0.285	0.2	0.79	0.824	0.804	0.357	0.264	0.694	0.651	0.429	0.617	0.364	0.87	0.803	0.7	0.448	0.316
